Results from patent publication EP0088849A1, “Levorotatory compounds of N-substituted benzenesulphone amides, process for their preparation and pharmaceutical compositions containing them” (CHOAY S.A., priority 1982, dated 1983).

System: chiens Beagle
Assay: Anti-emetic test: apomorphine-induced vomiting in Beagle dogs
Type: in vivo
Settings: for Diminution par rapport au témoin (%): percentage decrease in number of vomitings vs control trial, compound about 1 mg/kg intramuscular at time 0, apomorphine about 100 µg/kg subcutaneous 30 minutes later
Description: L'étude a été effectuée sur des chiens Beagle provenant de l'élevage du Centre de RecherchesBiologiques de Baugy.
On a tout d'abord effectué un essai témoin, puis six jours après, on a testé notamment les quatre composés mentionnés ci-dessus.
Pendant l'essai témoin, les animaux reçoivent 100 µg/kg d'apomorphine, qui provoque des vomissements,
Lorsqu'on teste les produits conformes à l'invention et le racémique du composé n° 1 135, les animaux reçoivent : • - à l'instant 0, une injection intra-musculaire du composé étudié à raison d'environ 1 mg/kg • - 30 minutes plus tard, une injection sous- cutanée d'apomorphine est effectuée, d'environ 100 µg/kg.
Les résultats donnés ci-après correspondent aux pourcentages de diminution du nombre de vomissements par rapport à l'essai témoin.

Compound | Diminution par rapport au témoin (%) | nombre de vomissements / activité (result in words, same test (about 1 mg/kg i.m., apomorphine about 100 µg/kg s.c. 30 min later))
CCN1CCCCCC1CNS(=O)(=O)c1cc(Cl)c(N)cc1OC (racemic) [Composé n° 1 149, amino-4 chloro-5 méthoxy-2 N-(N-éthyl méthyl-2 azépinyl) benzènesulfonamide] | 60 | 
CCN1CCCC1CNS(=O)(=O)c1cc(Cl)c(N)cc1OC (racemic) [racémique du lévo-gyre n° 1 135, reference compound] | 10 | 
CCN1CCC[C@H]1CNS(=O)(=O)c1cc(Cl)c(N)cc1OC [Composé n° 1 135] | 50 | beaucoup plus actif que le racémique correspondant
CCN1CCC[C@H]1CNS(=O)(=O)c1cc(Cl)c(OC)cc1OC [Composé n° 1 138] | 20 | 
